Results from ChEMBL document CHEMBL4483862, “Open-source discovery of chemical leads for next-generation chemoprotective antimalarials” (2018).

System: Plasmodium berghei
Assay: Luciferase/luciferin-expressing antifolate-resistant parasites were used to infect a culture of HepG2 cells that were pre-incubated with compounds. Infected hepatocytes emit light due to the luciferase reaction. Assay results are presented as the percent inhibition of light emission compared to control. […]
Format: functional
Conditions: sporozoite; for IC90: read-out: LUCIFERASE INFECTION ASSAY - IC90
[1] = read-out: LUCIFERASE INFECTION ASSAY - IC50

CNC(=O)c1ccc(CN(Cc2csc(-c3ccsc3)n2)Cc2ccco2)cc1
IC50 (PBLUC_HILL_SLOPE 16.0, 14.5, PBLUC_R_SQUARED 0.463, 0.641, read-out: LUCIFERASE INFECTION ASSAY - IC50): 2.83 µM
IC90: 3.26 µM

Cc1ccc(C23CC4CC(CC(C(=O)N5CCN(CCc6ccccc6)CC5)(C4)C2)C3)cc1
IC50 [1]: > 10 µM
IC90: > 10 µM

COC(=O)c1occc1/C=C/C(=O)c1ccc(OCc2ccccc2)cc1
IC50 [1]: > 10 µM
IC90: > 10 µM

CCOC(=O)c1c(C)[nH]c(C(=O)CSc2nnc(C3CC3)n2N)c1C
IC50 (PBLUC_HILL_SLOPE 1.71, PBLUC_R_SQUARED 0.964, read-out: LUCIFERASE INFECTION ASSAY - IC50): 0.235 µM
IC90: 0.847 µM

CC(=O)NCc1ccc(C(=O)Nc2ccccc2O)cc1
IC50 (PBLUC_HILL_SLOPE 1.36, PBLUC_R_SQUARED 0.725, read-out: LUCIFERASE INFECTION ASSAY - IC50): 1.97 µM
IC90: 9.91 µM

CCn1c2ccccc2c2cc(N)ccc21
IC50 [1]: > 10 µM
IC90: > 10 µM

CC1CC1C(=O)Nc1cccc(S(=O)(=O)N(C)c2ccccc2)c1 (stereo not given)
IC50 [1]: > 10 µM
IC90: > 10 µM

CCC(C)c1ccc(S(=O)(=O)N(Cc2ccc(C(=O)NC3CC3)cc2)C2CC2)cc1 (stereo not given)
IC50 (PBLUC_HILL_SLOPE 1.25, PBLUC_R_SQUARED 0.781, read-out: LUCIFERASE INFECTION ASSAY - IC50): 0.394 µM
IC90: 2.3 µM

CCOc1ccc(S(=O)(=O)/N=C2\C=C3N(CCO)CCOC3(O)c3ccccc32)cc1 (stereo not given)
IC50 (PBLUC_HILL_SLOPE 3.7, PBLUC_R_SQUARED 0.815, read-out: LUCIFERASE INFECTION ASSAY - IC50): 7.21 µM
IC90: > 10 µM

C=CCc1ccccc1OCC(O)CNC(C)(C)CC(C)(C)C (stereo not given)
IC50 (HEPG2TOX_HILL_SLOPE 15.1, HEPG2TOX_R_SQUARED 0.905, PBLUC_HILL_SLOPE 217, PBLUC_R_SQUARED 0.361, read-out: LUCIFERASE INFECTION ASSAY - IC50): 4.86 µM
IC90: 4.91 µM

Cn1cc(-c2cnc3cnc(-c4ccsc4)cn23)cn1
IC50 (HEPG2TOX_HILL_SLOPE 1.9, HEPG2TOX_R_SQUARED 0.409, PBLUC_HILL_SLOPE 1.49, PBLUC_R_SQUARED 0.155, read-out: LUCIFERASE INFECTION ASSAY - IC50): > 11.7 µM
IC90: > 11.7 µM

CCCCn1c(CSc2ccccn2)cn(-c2nnc(C(C)(C)C)s2)c1=O
IC50 [1]: > 8.18 µM
IC90: > 8.18 µM

CCN1CCC(Nc2cnc3c(c2)c(NC(=O)Cc2ccccc2)c(C(=O)OC)n3CC(C)C)CC1
IC50 [1]: 5.59 µM
IC90: > 6.71 µM

O=C(NCc1cc(Cl)cc(Cl)c1)c1cc(C(F)(F)F)cc(C(F)(F)F)c1
IC50 [1]: > 7.93 µM
IC90: > 7.93 µM

O=C(Nc1nc2ccccn2c1C(=O)NC1CCCC1)c1ccc(F)c(F)c1
IC50 (FFLUC_HILL_SLOPE 26.5, FFLUC_R_SQUARED 0.0302, HEPG2TOX_HILL_SLOPE 1.05, HEPG2TOX_R_SQUARED 0.954, PBLUC_HILL_SLOPE 2.57, PBLUC_R_SQUARED 0.624, read-out: LUCIFERASE INFECTION ASSAY - IC50): 1.35 µM
IC90: 3.18 µM

CCCCc1ccc(NC2=C(Cl)C(=O)c3ccccc3C2=O)cc1
IC50 (FFLUC_HILL_SLOPE 9.03, FFLUC_R_SQUARED 0.305, HEPG2TOX_HILL_SLOPE 8.62, HEPG2TOX_R_SQUARED 0.549, PBLUC_HILL_SLOPE 14.3, PBLUC_R_SQUARED 0.552, read-out: LUCIFERASE INFECTION ASSAY - IC50): 3.1 µM
IC90: 3.62 µM

O=C(CSCCCN1CCN(c2cccc(Cl)c2)CC1)N/N=C/c1ccc(Cl)cc1
IC50 [1]: > 7.09 µM
IC90: > 7.09 µM

CC1CCc2nc3ccccc3c(C(=O)OCCOc3ccccc3Cl)c2C1 (stereo not given)
IC50 [1]: > 10 µM
IC90: > 10 µM

O=C(c1cnc2nc(N3CCCCC3)sc2c1)c1ccccc1O
IC50 [1]: 6.09 µM
IC90: > 10 µM

N#CCCN(CCC#N)C(=O)CSc1nnc(CCC(N)=O)n1C1CC1
IC50 [1]: > 10 µM
IC90: > 10 µM

CSc1ncccc1C(=O)Nc1nc(-c2ccc3ccccc3c2)cs1
IC50 (FFLUC_HILL_SLOPE 11.5, FFLUC_R_SQUARED 0.449, read-out: LUCIFERASE INFECTION ASSAY - IC50): > 10 µM
IC90: > 10 µM

CCOc1cc2c(cc1CNC(=O)c1cnc3cc(C)nn3c1C)OC(C)C2 (stereo not given)
IC50 (PBLUC_HILL_SLOPE 2.71, PBLUC_R_SQUARED 0.828, read-out: LUCIFERASE INFECTION ASSAY - IC50): 2.13 µM
IC90: 4.78 µM

Cc1ccc(N2C(=O)C=CC2=O)cc1Cl
IC50 (FFLUC_HILL_SLOPE 79.3, FFLUC_R_SQUARED 0.497, PBLUC_HILL_SLOPE 1.92, PBLUC_R_SQUARED 0.35, read-out: LUCIFERASE INFECTION ASSAY - IC50): 6.38 µM
IC90: > 14.9 µM

CCN1CCC[C@H]1CNC(=O)C(C)c1ccc2c(c1)[nH]c1ccc(Cl)cc12 (stereo not given in full)
IC50 (HEPG2TOX_HILL_SLOPE 11.5, HEPG2TOX_R_SQUARED 0.93, PBLUC_HILL_SLOPE 6.18, PBLUC_R_SQUARED 0.807, read-out: LUCIFERASE INFECTION ASSAY - IC50): 3.88 µM
IC90: 5.54 µM

COc1ccc(C2=C(NCCc3ccccc3)c3ccccc3C2=O)cc1
IC50 (FFLUC_HILL_SLOPE 105, FFLUC_R_SQUARED 0.774, PBLUC_HILL_SLOPE 1.53, PBLUC_R_SQUARED 0.754, read-out: LUCIFERASE INFECTION ASSAY - IC50): 0.096 µM
IC90: 0.404 µM

COc1cc2c(cc1OC)CN(C(=O)c1ccc(OCC(F)(F)F)nc1)CC2
IC50 (HEPG2TOX_HILL_SLOPE 0.758, HEPG2TOX_R_SQUARED 0.894, PBLUC_HILL_SLOPE 2.65, PBLUC_R_SQUARED 0.321, read-out: LUCIFERASE INFECTION ASSAY - IC50): 3.14 µM
IC90: 7.21 µM

N#C/C(=C\c1cccc([N+](=O)[O-])c1)c1nn(-c2ccccc2)c(-n2cccc2)c1C#N
IC50 (PBLUC_HILL_SLOPE 2.16, PBLUC_R_SQUARED 0.645, read-out: LUCIFERASE INFECTION ASSAY - IC50): 5.63 µM
IC90: > 8.12 µM

Cc1cc(C(=O)COc2ccccc2C(N)=O)c(C)n1C(C)c1ccccc1 (stereo not given)
IC50 (HEPG2TOX_HILL_SLOPE 1.33, HEPG2TOX_R_SQUARED 0.859, PBLUC_HILL_SLOPE 2.23, PBLUC_R_SQUARED 0.779, read-out: LUCIFERASE INFECTION ASSAY - IC50): 4.55 µM
IC90: > 10 µM

COc1cc(OC)cc(Oc2nc(NC(C)C)nc3ccsc23)c1
IC50 [1]: 1.25 µM
IC90: 1.38 µM

CCCCCc1c(C)nc(-c2ccccn2)nc1O
IC50 [1]: > 12.8 µM
IC90: > 12.8 µM

c1csc(-c2cnc3ccc(-c4cccc5ncccc45)nn23)c1
IC50 (HEPG2TOX_HILL_SLOPE 3.19, HEPG2TOX_R_SQUARED 0.792, PBLUC_HILL_SLOPE 2.95, PBLUC_R_SQUARED 0.78, read-out: LUCIFERASE INFECTION ASSAY - IC50): 2.49 µM
IC90: 5.26 µM

CCCn1nc(C(=O)NCC(c2ccc(OC)cc2)N2CCOCC2)c2ccccc2c1=O (stereo not given)
IC50 (HEPG2TOX_HILL_SLOPE 1.06, HEPG2TOX_R_SQUARED 0.0699, read-out: LUCIFERASE INFECTION ASSAY - IC50): > 10 µM
IC90: > 10 µM

CCOc1ccc2c(c1)O/C(=C\c1cc(Cl)cc3c1OCOC3)C2=O
IC50 (HEPG2TOX_HILL_SLOPE 2.45, HEPG2TOX_R_SQUARED 0.948, PBLUC_HILL_SLOPE 1.42, PBLUC_R_SQUARED 0.8, read-out: LUCIFERASE INFECTION ASSAY - IC50): 1.39 µM
IC90: 6.53 µM

CCN(c1ccc(NC(=O)CCc2ccccc2Cl)cc1)C(C)C
IC50 (HEPG2TOX_HILL_SLOPE 1.73, HEPG2TOX_R_SQUARED 0.92, read-out: LUCIFERASE INFECTION ASSAY - IC50): > 10 µM
IC90: > 10 µM

CCOC(=O)c1cc(C#N)c(N2CCN(S(=O)(=O)c3ccccc3Cl)CC2)nc1C(F)(F)F
IC50 [1]: > 6.56 µM
IC90: > 6.56 µM
